This note sets out measurements from PubChem BioAssay (NCI).

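Test compounds were applied to cells in 96-well plates for 48 hours at 5 doses. TGI marks complete inhibition of growth.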 Some results are limits rather than exact numbers.

Test systems include SW-620 colon; HL-60(TB) leukemia; CAKI-1 renal; SK-MEL-5 melanoma; SK-MEL-28 melanoma; SK-OV-3 ovarian; SNB-75 CNS; NCI-H226 lung; HT29 colon; HOP-62 NSCLC; SF-295 CNS; OVCAR-5 ovarian; EKVX NSCLC; HCT-116 colon; IGROV1 ovarian; K-562 leukemia; UACC-257 melanoma; OVCAR-3 ovarian; MDA-N; SF-268 CNS.
Assay in all cases: NCI anticancer screen, dose series, 48 h

Take `COc1ccc2nc3ccccc3c(NCCCCCCN(CCCl)CCCl)c2c1`: the TGI stood at 0.472 µM in the test on SW-620 colon; 0.592 µM in the test with HL-60(TB) leukemia; 0.197 µM in the test on CAKI-1 renal; 1.64 µM in the test with SK-MEL-5 melanoma; 76.1 µM with SK-MEL-28 melanoma; 2.74 µM with SK-OV-3 ovarian. Further, the TGI came out at 0.0924 µM with SNB-75 CNS; 1.53 µM with NCI-H226 lung; 1.28 µM in the test with HT29 colon; 2.42 µM with HOP-62 NSCLC; 1.01 µM in the test with SF-295 CNS; 1.9 µM in the test on OVCAR-5 ovarian. Further, the TGI with EKVX NSCLC is 4.22 µM; in the test with HCT-116 colon, 1.39 µM; with IGROV1 ovarian, 3.85 µM; in the test on K-562 leukemia, above 18.5 µM; in the test with UACC-257 melanoma it was above 22.9 µM; in the test on OVCAR-3 ovarian it was 3.14 µM. The TGI stood at 0.656 µM with MDA-N and 1.18 µM in the test on SF-268 CNS.
For the compound `N=C(N)c1ccc(N=Nc2c(O)ccc3c2[nH]c2ccccc23)cc1`, the TGI in the test with SW-620 colon was 4.85 µM; in the test on HL-60(TB) leukemia it was above 100 µM; in the test with CAKI-1 renal, above 100 µM; with SK-MEL-5 melanoma, above 100 µM; in the test on SK-MEL-28 melanoma, above 70.9 µM; with SK-OV-3 ovarian, 79.9 µM. Besides, the TGI in the test with SNB-75 CNS is above 100 µM; in the test with NCI-H226 lung, above 90.6 µM; with HT29 colon it was above 100 µM; in the test on HOP-62 NSCLC it was above 100 µM; in the test with SF-295 CNS, above 84.4 µM; in the test with OVCAR-5 ovarian, 83.1 µM. The TGI in the test on EKVX NSCLC was above 100 µM; with HCT-116 colon, 37.5 µM; in the test on IGROV1 ovarian it was above 100 µM; in the test on K-562 leukemia it was 4.02 µM; in the test on UACC-257 melanoma, above 89.1 µM; with OVCAR-3 ovarian, 5.67 µM. For the same compound, the results for the TGI in the test with MDA-N and with SF-268 CNS were 50.6 µM and above 100 µM, respectively.
